Test results as given in ChEMBL document CHEMBL1649195, “Tetracyclines modulate protease-activated receptor 2-mediated proinflammatory reactions in epidermal keratinocytes” (Antimicrob Agents Chemother, 2009).
Activity calls are given as the source filed them. The calls are words filed in the database; no cut-off is given here.

Columns and labels:
[1] = target: Proteinase-activated receptor 2 (Homo sapiens) (UniProt P55085); test: Inhibition of PAR2-mediated TNFalpha and SLIGKV-NH2-induced interleukin-8 production in normal human epidermal keratinocytes at 10 uM by ELISA
Sequence of Proteinase-activated receptor 2 (Homo sapiens) (P55085 whole entry): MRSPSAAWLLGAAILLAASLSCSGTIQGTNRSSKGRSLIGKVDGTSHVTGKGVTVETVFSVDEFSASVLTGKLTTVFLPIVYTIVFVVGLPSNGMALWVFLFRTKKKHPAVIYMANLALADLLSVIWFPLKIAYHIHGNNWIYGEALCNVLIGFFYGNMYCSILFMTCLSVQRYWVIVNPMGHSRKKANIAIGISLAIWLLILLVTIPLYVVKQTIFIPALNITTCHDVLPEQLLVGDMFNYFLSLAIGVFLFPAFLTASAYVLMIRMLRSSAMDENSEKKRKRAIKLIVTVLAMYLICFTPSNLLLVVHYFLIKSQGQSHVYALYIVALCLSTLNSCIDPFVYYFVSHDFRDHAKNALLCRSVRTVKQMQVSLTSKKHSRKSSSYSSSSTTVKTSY

[2] = Cytotoxicity against normal human epidermal keratinocytes at 100 uM after 72 hrs by MTT assay; type: cell-based; conditions: keratinocyte
[3] = Cytotoxicity against normal human epidermal keratinocytes at 10 uM after 72 hrs by MTT assay; type: cell-based; conditions: keratinocyte
[4] = target: Proteinase-activated receptor 2 (Homo sapiens) (UniProt P55085); test: Inhibition of PAR2-mediated SLIGKV-NH2-induced interleukin-8 production in normal human epidermal keratinocytes at 5 uM after 24 hrs by ELISA
[5] = target: Proteinase-activated receptor 2 (Homo sapiens) (UniProt P55085); test: Inhibition of PAR2-mediated SLIGKV-NH2-induced interleukin-8 production in normal human epidermal keratinocytes at 10 uM after 24 hrs by ELISA
[6] = target: Proteinase-activated receptor 2 (Homo sapiens) (UniProt P55085); test: Inhibition of PAR2 gene expression in normal human epidermal keratinocytes at 10 uM after 48 hrs by quantitative RT-PCR
[7] = target: Proteinase-activated receptor 2 (Homo sapiens) (UniProt P55085); test: Inhibition of PAR2-mediated IL1-beta and SLIGKV-NH2-induced interleukin-8 production in normal human epidermal keratinocytes at 10 uM by ELISA
[8] = Cytotoxicity against normal human epidermal keratinocytes at 5 uM after 72 hrs by MTT assay; type: cell-based; conditions: keratinocyte

CC[C@H]1OC(=O)[C@H](C)[C@@H](O[C@H]2C[C@@](C)(OC)[C@@H](O)[C@H](C)O2)[C@H](C)[C@@H](O[C@@H]2O[C@H](C)C[C@H](N(C)C)[C@H]2O)[C@](C)(O)C[C@@H](C)/C(=N\OCOCCOC)[C@H](C)[C@@H](O)[C@]1(C)O
Activity [1]: inactive

CC[C@H]1OC(=O)[C@H](C)[C@@H](O[C@H]2C[C@@](C)(OC)[C@@H](O)[C@H](C)O2)[C@H](C)[C@@H](O[C@@H]2O[C@H](C)C[C@H](N(C)C)[C@H]2O)[C@](C)(OC)C[C@@H](C)C(=O)[C@H](C)[C@@H](O)[C@]1(C)O
Activity [1]: inactive

C[C@H]1c2cccc(O)c2C(=O)C2=C(O)[C@]3(O)C(=O)C(C(N)=O)=C(O)[C@@H](N(C)C)[C@@H]3[C@@H](O)[C@@H]21.O [DOXYCYCLINE]
Activity [2]: Toxic
Activity [3]: Non-toxic
Activity [4]: Active
Activity [5]: Active
Activity [6]: inactive
Activity [7]: Active
Activity [1]: Active
Activity [8]: Non-toxic

CN(C)c1ccc(O)c2c1C[C@H]1C[C@H]3[C@H](N(C)C)C(O)=C(C(N)=O)C(=O)[C@@]3(O)C(O)=C1C2=O [MINOCYCLINE]
Activity [2]: Toxic
Activity [3]: Non-toxic
Activity [4]: Active
Activity [5]: Active
Activity [6]: inactive
Activity [7]: Active
Activity [1]: Active
Activity [8]: Non-toxic

CN(C)[C@@H]1C(O)=C(C(N)=O)C(=O)[C@@]2(O)C(O)=C3C(=O)c4c(O)cccc4[C@@](C)(O)[C@H]3C[C@@H]12 [TETRACYCLINE]
Activity [2]: Toxic
Activity [3]: Non-toxic
Activity [4]: Active
Activity [5]: Active
Activity [6]: inactive
Activity [7]: inactive
Activity [1]: Active
Activity [8]: Non-toxic
